In US5837728A, “9-cis retinoic acid esters and amides and uses thereof” (priority 1995, dated 1998):

What was measured:
[1] = test system: ulceration of both lower legs; settings: one patient, livedoid vasculitis; cited from earlier work
retinoid receptors = settings: all six subfamilies of retinoid receptors; cited from earlier work
sebaceous gland = test: Oral hamster sebaceous gland reduction assay; format: in vivo, male Syrian golden hamsters; parameters: key to the marks not given beside the values; settings: 32 mg/kg
Description: An oral assay for hamster sebaceous gland reduction is conducted.
Hamsters are dosed orally with the test compound and vehicle alone. The reduction in sebaceous gland size is estimated microscopically in relation to the control. The assay is unique and proprietary to Ortho Pharmaceutical Corp. and is based upon the work of Plewig et al. (1977) and Gomex et al. (1980). Plewig, et al., Hamster Ear Model for Sebaceous Glands, J. Invest. Derm. 68: 171-176 (1977). Gomez, et al., Effect of 13-cis-Retinoic Acid on the Hamster Flank Organ, J. Invest. Derm. 74: 392-397 (1980).
For oral (p.o.) studies, male Syrian golden hamsters are […] at 5 ml/kg, once daily, five consecutive days/week for two or three weeks. Modified but similar dosing schedules could be used. Control hamsters are dosed with vehicle alone at 5 ml/kg. Following final treatment (up to 72 hours), the hamsters are sacrificed in a CO2 atmosphere. Samples of each test site are placed into 10% buffered formalin and histologically prepared. Serial sections of each sample are stained (H&E) and examined microscopically.
The reduction in sebaceous gland size is estimated microscopically in relation to the control treated sites. To quantify sebaceous gland size, cross-sectional areas are measured with an image analyzer system.

[2] = test system: skin (inner forearm, cheek); test: Topical assay for comparative dermal irritation in human subjects; format: in vivo, human (patients)
Description: 2-(9-cis-retinoyloxy)-4-methoxyacetophenone is evaluated in a study of its potential to produce dermal irritation. Comparisons are made of tretinoin, isotretinoin, 2-(9-cis-retinoyloxy)-4-methoxyacetophenone, and the vehicle solution.
In the first test, four solutions are used. The control consists of vehicle solution, namely a solution of 60% by volume ethanol and 40% by volume polyethylene glycol. The other three solutions are 0.025% solutions of tretinoin, isotretinoin, or 2-(9-cis-retinoyloxy)-4-methoxyacetophenone in 60% by volume ethanol and 40% by volume polyethylene glycol. Four patients paint two saturated cotton swabs of each of the four solutions on four different areas of the inner forearm, twice daily for ten days.
In the second test, four other solutions are used. The control consists of vehicle solution, namely a solution of 90% by volume ethanol and 10% by volume polyethylene glycol. The other three solutions are 0.075% solutions of tretinoin, isotretinoin, or 2-(9-cis-retinoyloxy)-4-methoxyacetophenonein 90% by volume ethanol and 10% by volume polyethylene glycol. Four patients paint two saturated cotton swabs of each of the four solutions on four different areas of the inner forearm, twice daily for ten days. Only one subject experiences an irritant reaction. […] By day nine, both areas are still reacting, the tretinoin area more intensely than the isotretinoin area. There is no reaction in either the 2-(9-cis-retinoyloxy)-4-methoxyacetophenone or the control areas.
In the third test, three solutions are used. The three solutions are 0.075% solutions of tretinoin, isotretinoin, or 2-(9-cis-retinoyloxy)-4-methoxyacetophenone in 90% by volume ethanol and 10% by volume polyethylene glycol. Four patients paint two saturated cotton swabs of the 2-(9-cis-retinoyloxy)-4-methoxyacetophenone solution twice daily on one cheek of their faces. To the other cheek they apply two saturated cotton swabs of either tretinoin or isotretinoin.
The tests are carried out in double-blind fashion, that is, neither the subjects nor the investigator know the contents of the solutions during the study.
Clinical assessments are made daily of the subjects cheeks. All subjects develop irritant reactions by the third or fourth day of the study.

[3] = test system: donor sites (partial-thickness wounds); settings: average, silver sulfadiazine cream containing epidermal growth factor; cited from earlier work

For `O=C(c1ccc(F)cc1)C1CCN(CCn2c(=O)[nH]c3ccccc3c2=O)CC1` [Ketanserin], the “Effect on recalcitrant ulceration” value [1] is given as “healed the lesions in a patient with recalcitrant ulceration of both lower legs”.
In the case of `CC1=C(/C=C/C(C)=C\C=C\C(C)=C\C(=O)O)C(C)(C)CCC1` [9-cis-retinoic acid], the “Equilibrium constants in competitive binding” value (retinoid receptors) is given as “lowest equilibrium constants of all retinoids for all six subfamilies of retinoid receptors”.
For `CC1=C(/C=C/C(C)=C/C=C/C(C)=C\C(=O)O)C(C)(C)CCC1` [13-cis-retinoic acid], the Sebaceous gland reduction (sebaceous gland) was “++”, the “Irritant reactions, inner forearm” value ([2]; first test, 0.025% solution, twice daily for ten days) was “No irritant reactions occur” and the “Irritant reaction, inner forearm” value ([2]; second test, 0.075% solution, twice daily for ten days, one subject of four reacted) was “On day seven, the isotretinoin area begins reacting with redness and peeling”. The “Irritation of the cheeks” value ([2]; third test, 0.075% solution, twice daily, six days) was “reactions which are so intense with redness and peeling that all subjects discontinue application on or before the sixth day”.
For epidermal growth factor, the “Acceleration of donor site healing time” value [3] is given as 1.5 days.
